{
  "source": "patent US4281136A",
  "about": "“2-Alkyl-3-haloisothiazolium salts and their derivatives” (Givaudan Corporation, priority 1978, dated 1981)",
  "key": {"Ps. aeruginosa": {"test_system": "Ps. aeruginosa", "assay": "preservative for cutting oil emulsions", "assay_type": "cell-based", "details": "for Minimum Inhibitory Concentration: listed as CH3, Cl, H; for MIC: Pseudomonas aeruginosa", "protocol": "Various aliquots of a 6% solution of the chemical in ethanol were added to cutting oil emulsions prepared by diluting Kutwell 30 cutting oil concentrate 1 to 30 with water. These samples were inoculated with a culture of Ps. aeruginosa and incubated at 28° on a rotary shaker. At weekly intervals the samples were examined for microorganisms and then reinoculated and incubated."}, "Aureobasidium pullulans": {"test_system": "Aureobasidium pullulans", "assay": "preservative for latex paints", "assay_type": "cell-based", "details": "for zone of inhibition at 0.25 % / zone of inhibition at 0.5 %: Aureobasidium pullulans, 504 h; for Surface (growth on the surface of painted square): none, medium or heavy", "protocol": "Various quantities of the chemical were incorporated into a white exterior vinyl acetate paint. Whatman #30 filter paper was painted with one coat of paint on each side. One inch squares were cut and placed in Petri dishes on a malt agar.\nThe surface of both the agar and the painted squares were inoculated with a spore suspension of Aureobasidium pullulans. The plates were examined for zones of inhibition and surface growth after three weeks incubation in a humidity chamber at 27°-28°.\nVarious quantities of 4,5-dichloro-2-methyl-4-isothiazolin-3-thione were incorporated into a white exterior vinyl acetate paint and tested as described in Example IV."}, "[1]": {"details": "168 h, cutting oil emulsion, incubation 1 week, 28°, read-out: Minimum Inhibitory Concentration"}, "[2]": {"details": "336 h, cutting oil emulsion, incubation 2 weeks, 28°, read-out: Minimum Inhibitory Concentration"}, "[3]": {"details": "504 h, cutting oil emulsion, incubation 3 weeks, 28°, read-out: Minimum Inhibitory Concentration"}, "[4]": {"details": "672 h, cutting oil emulsion, incubation 4 weeks, 28°, read-out: Minimum Inhibitory Concentration"}, "[5]": {"details": "168 h, read-out: Minimum Inhibitory Concentration, cutting oil emulsion, incubation 1 week, 28°"}, "[6]": {"details": "336 h, read-out: Minimum Inhibitory Concentration, cutting oil emulsion, incubation 2 weeks, 28°"}, "[7]": {"details": "504 h, read-out: Minimum Inhibitory Concentration, cutting oil emulsion, incubation 3 weeks, 28°"}, "[8]": {"details": "672 h, read-out: Minimum Inhibitory Concentration, cutting oil emulsion, incubation 4 weeks, 28°"}, "[9]": {"details": "Conc. 0.25% in vinyl acetate paint, three weeks, 27°-28°, read-out: Zone (zone of inhibition)"}, "[10]": {"details": "Conc. 0.5% in vinyl acetate paint, three weeks, 27°-28°, read-out: Zone (zone of inhibition)"}},
  "note": "Where two headings read alike, the source gives them in different places.",
  "data": [
    {"smiles": "C[n+]1sccc1Cl", "note": "[No. 16 (Table I)]", "values": [
      {"measurement": "Minimum Inhibitory Concentration", "setting": "Ps. aeruginosa; cutting oil emulsion, incubation 1 week, 28°, SbCl6", "result": 8, "unit": "µg/mL"},
      {"measurement": "Minimum Inhibitory Concentration", "setting": "Ps. aeruginosa; cutting oil emulsion, incubation 2 weeks, 28°, SbCl6", "result": 16, "unit": "µg/mL"},
      {"measurement": "Minimum Inhibitory Concentration", "setting": "Ps. aeruginosa; cutting oil emulsion, incubation 3 weeks, 28°, SbCl6", "result": 16, "unit": "µg/mL"},
      {"measurement": "Minimum Inhibitory Concentration", "setting": "Ps. aeruginosa; cutting oil emulsion, incubation 4 weeks, 28°, SbCl6", "result": 16, "unit": "µg/mL"}
    ]},
    {"smiles": "C[n+]1sc(C#N)c(Cl)c1Cl", "note": "[No. 25 (Table I), 5-Cyano-3,4-dichloro-2-methylisothiazolium fluorosulfonate]", "values": [
      {"measurement": "MIC", "setting": "Ps. aeruginosa; [1]", "result": "< 16", "unit": "µg/mL"},
      {"measurement": "MIC", "setting": "Ps. aeruginosa; [2]", "result": 125, "unit": "µg/mL"},
      {"measurement": "MIC", "setting": "Ps. aeruginosa; [3]", "result": 250, "unit": "µg/mL"},
      {"measurement": "MIC", "setting": "Ps. aeruginosa; [4]", "result": 250, "unit": "µg/mL"}
    ]},
    {"smiles": "CN1SC=CC1=C(C#N)C#N", "note": "[drawing 12 CH3, H, H]", "values": [
      {"measurement": "MIC", "setting": "Ps. aeruginosa; [1]", "result": 250, "unit": "µg/mL"},
      {"measurement": "MIC", "setting": "Ps. aeruginosa; [2]", "result": 500, "unit": "µg/mL"},
      {"measurement": "MIC", "setting": "Ps. aeruginosa; [3]", "result": 500, "unit": "µg/mL"},
      {"measurement": "MIC", "setting": "Ps. aeruginosa; [4]", "result": 500, "unit": "µg/mL"}
    ]},
    {"smiles": "CCn1sc(Cl)c(Cl)c1=S", "note": "[No. 2 (Table VIII)]", "values": [
      {"measurement": "MIC", "setting": "Ps. aeruginosa; [1]", "result": 16, "unit": "µg/mL"},
      {"measurement": "MIC", "setting": "Ps. aeruginosa; [2]", "result": 32, "unit": "µg/mL"},
      {"measurement": "MIC", "setting": "Ps. aeruginosa; [3]", "result": 62, "unit": "µg/mL"},
      {"measurement": "MIC", "setting": "Ps. aeruginosa; [4]", "result": 62, "unit": "µg/mL"}
    ]},
    {"smiles": "CCOC(=O)c1s[n+](C)c(Cl)c1Cl", "note": "[No. 24 (Table I), 3,4-Dichloro-2-methyl-5-ethoxycarbonylisothiazolium fluorosulfonate]", "values": [
      {"measurement": "MIC", "setting": "Ps. aeruginosa; [1]", "result": 125, "unit": "µg/mL"},
      {"measurement": "MIC", "setting": "Ps. aeruginosa; [2]", "result": 250, "unit": "µg/mL"},
      {"measurement": "MIC", "setting": "Ps. aeruginosa; [3]", "result": 250, "unit": "µg/mL"},
      {"measurement": "MIC", "setting": "Ps. aeruginosa; [4]", "result": 250, "unit": "µg/mL"}
    ]},
    {"smiles": "CC[n+]1sccc1Cl", "note": "[No. 18 (Table I), 3-Chloro-2-ethylisothiazolium ethylsulfate]", "values": [
      {"measurement": "MIC", "setting": "Ps. aeruginosa; [5]", "result": 125, "unit": "µg/mL"},
      {"measurement": "MIC", "setting": "Ps. aeruginosa; [6]", "result": 125, "unit": "µg/mL"},
      {"measurement": "MIC", "setting": "Ps. aeruginosa; [7]", "result": 125, "unit": "µg/mL"},
      {"measurement": "MIC", "setting": "Ps. aeruginosa; [8]", "result": 500, "unit": "µg/mL"}
    ]},
    {"smiles": "CC[n+]1sc(Cl)c(Cl)c1Cl", "note": "[Et, Cl, Cl, Cl, O3SCF3]", "values": [
      {"measurement": "zone of inhibition at 0.25 %", "setting": "Aureobasidium pullulans; [9]", "result": 20, "unit": "mm"},
      {"measurement": "zone of inhibition at 0.5 %", "setting": "Aureobasidium pullulans; [10]", "result": 20, "unit": "mm"},
      {"measurement": "Surface (growth on the surface of painted square)", "setting": "Aureobasidium pullulans; Conc. 0.25% in vinyl acetate paint, three weeks, 27°-28°", "result": "None"},
      {"measurement": "Surface (growth on the surface of painted square)", "setting": "Aureobasidium pullulans; Conc. 0.5% in vinyl acetate paint, three weeks, 27°-28°", "result": "None"}
    ]},
    {"smiles": "Cc1s[n+](C)c(Cl)c1Cl", "note": "[No. 27 (Table I), 3,4-Dichloro-2,5-dimethylisothiazolium fluorosulfonate]", "values": [
      {"measurement": "MIC", "setting": "Ps. aeruginosa; [5]", "result": 125, "unit": "µg/mL"},
      {"measurement": "MIC", "setting": "Ps. aeruginosa; [6]", "result": 250, "unit": "µg/mL"},
      {"measurement": "MIC", "setting": "Ps. aeruginosa; [7]", "result": 500, "unit": "µg/mL"},
      {"measurement": "MIC", "setting": "Ps. aeruginosa; [8]", "result": 500, "unit": "µg/mL"}
    ]},
    {"smiles": "C[n+]1scc(Cl)c1Cl", "note": "[No. 22 (Table I), 3,4-Dichloro-2-methylisothiazolium fluorosulfonate]", "values": [
      {"measurement": "MIC", "setting": "Ps. aeruginosa; [5]", "result": 32, "unit": "µg/mL"},
      {"measurement": "MIC", "setting": "Ps. aeruginosa; [6]", "result": 32, "unit": "µg/mL"},
      {"measurement": "Minimum Inhibitory Concentration", "setting": "Ps. aeruginosa; cutting oil emulsion, incubation 3 weeks, 28°, Cl, O3SF", "result": 125, "unit": "µg/mL"},
      {"measurement": "Minimum Inhibitory Concentration", "setting": "Ps. aeruginosa; cutting oil emulsion, incubation 4 weeks, 28°, Cl, O3SF", "result": 250, "unit": "µg/mL"},
      {"measurement": "zone of inhibition at 0.25 %", "setting": "Aureobasidium pullulans; read-out: Zone (zone of inhibition), Conc. 0.25% in vinyl acetate paint, three weeks, 27°-28°", "result": 0, "unit": "mm"},
      {"measurement": "zone of inhibition at 0.5 %", "setting": "Aureobasidium pullulans; read-out: Zone (zone of inhibition), Conc. 0.5% in vinyl acetate paint, three weeks, 27°-28°", "result": 0, "unit": "mm"}
    ]},
    {"smiles": "C[n+]1sccc1Cl", "note": "[No. 13 (Table I), 3-Chloro-2-methylisothiazolium fluorosulfonate]", "values": [
      {"measurement": "Minimum Inhibitory Concentration", "setting": "Ps. aeruginosa; cutting oil emulsion, incubation 1 week, 28°, O3SF", "result": 32, "unit": "µg/mL"},
      {"measurement": "Minimum Inhibitory Concentration", "setting": "Ps. aeruginosa; cutting oil emulsion, incubation 2 weeks, 28°, O3SF", "result": 32, "unit": "µg/mL"},
      {"measurement": "Minimum Inhibitory Concentration", "setting": "Ps. aeruginosa; cutting oil emulsion, incubation 3 weeks, 28°, O3SF", "result": 32, "unit": "µg/mL"},
      {"measurement": "Minimum Inhibitory Concentration", "setting": "Ps. aeruginosa; cutting oil emulsion, incubation 4 weeks, 28°, O3SF", "result": 32, "unit": "µg/mL"}
    ]},
    {"smiles": "C[n+]1sccc1Cl", "note": "[No. 14 (Table I)]", "values": [
      {"measurement": "Minimum Inhibitory Concentration", "setting": "Ps. aeruginosa; cutting oil emulsion, incubation 1 week, 28°, O3SOMe", "result": 64, "unit": "µg/mL"},
      {"measurement": "Minimum Inhibitory Concentration", "setting": "Ps. aeruginosa; cutting oil emulsion, incubation 2 weeks, 28°, O3SOMe", "result": 64, "unit": "µg/mL"},
      {"measurement": "Minimum Inhibitory Concentration", "setting": "Ps. aeruginosa; cutting oil emulsion, incubation 3 weeks, 28°, O3SOMe", "result": 64, "unit": "µg/mL"},
      {"measurement": "Minimum Inhibitory Concentration", "setting": "Ps. aeruginosa; cutting oil emulsion, incubation 4 weeks, 28°, O3SOMe", "result": 64, "unit": "µg/mL"}
    ]},
    {"smiles": "C[n+]1scc([N+](=O)[O-])c1Cl", "note": "[No. 28 (Table I)]", "values": [
      {"measurement": "MIC", "setting": "Ps. aeruginosa; [1]", "result": 125, "unit": "µg/mL"},
      {"measurement": "MIC", "setting": "Ps. aeruginosa; [2]", "result": 500, "unit": "µg/mL"},
      {"measurement": "MIC", "setting": "Ps. aeruginosa; [3]", "result": 500, "unit": "µg/mL"},
      {"measurement": "MIC", "setting": "Ps. aeruginosa; [4]", "result": 500, "unit": "µg/mL"}
    ]},
    {"smiles": "C[n+]1sc(Cl)c(C#N)c1Cl", "note": "[No. 26 (Table I), 4-Cyano-3,5-dichloro-2-methylisothiazolium fluorosulfonate]", "values": [
      {"measurement": "MIC", "setting": "Ps. aeruginosa; [1]", "result": "< 16", "unit": "µg/mL"},
      {"measurement": "MIC", "setting": "Ps. aeruginosa; [2]", "result": 125, "unit": "µg/mL"},
      {"measurement": "MIC", "setting": "Ps. aeruginosa; [3]", "result": 250, "unit": "µg/mL"},
      {"measurement": "MIC", "setting": "Ps. aeruginosa; [4]", "result": 250, "unit": "µg/mL"},
      {"measurement": "zone of inhibition at 0.25 %", "setting": "Aureobasidium pullulans; [9]", "result": 0, "unit": "mm"},
      {"measurement": "zone of inhibition at 0.5 %", "setting": "Aureobasidium pullulans; [10]", "result": 0, "unit": "mm"}
    ]},
    {"smiles": "C[n+]1scc(Cl)c1Cl", "note": "[No. 23 (Table I)]", "values": [
      {"measurement": "Minimum Inhibitory Concentration", "setting": "Ps. aeruginosa; cutting oil emulsion, incubation 3 weeks, 28°, Cl, O3SOMe", "result": 32, "unit": "µg/mL"},
      {"measurement": "Minimum Inhibitory Concentration", "setting": "Ps. aeruginosa; cutting oil emulsion, incubation 4 weeks, 28°, Cl, O3SOMe", "result": 32, "unit": "µg/mL"}
    ]},
    {"smiles": "CN1SC(C#N)=C(Cl)C1=C(C#N)C#N", "note": "[drawing 12 CH3, Cl, CN]", "values": [
      {"measurement": "MIC", "setting": "Ps. aeruginosa; [1]", "result": 62, "unit": "µg/mL"},
      {"measurement": "MIC", "setting": "Ps. aeruginosa; [2]", "result": 250, "unit": "µg/mL"},
      {"measurement": "MIC", "setting": "Ps. aeruginosa; [3]", "result": 250, "unit": "µg/mL"},
      {"measurement": "MIC", "setting": "Ps. aeruginosa; [4]", "result": 250, "unit": "µg/mL"}
    ]}
  ]
}
